Assay results taken from patent US5843916A, “Cyclic amp analogues, individually and in pairs, to inhibit neoplastic cell growth” (priority 1994, dated 1998).
pIC50: −log10 of the molar value. Read-outs that look alike come from different tables or passages of the source.

Key:
[1] = tested on: Molt-4; assay: Growth inhibition of leukemic cells (Table 12); format: cell-based, human; conditions: for pIC50: Homo sapiens, MOLT-4
[2] = tested on: DMBA-1 mammary carcinoma; assay: Growth of transplantable mammary carcinoma, pellet (Table 5); format: in vivo, rat; conditions: for Change in mean tumor volume (cm^3) / Change in mean tumor volume (%): pellet with 10 mg analogue, day 7; for Change in mean tumor volume (%): none = 100
Experimental: (§1) Based on the findings with the […] leukemia model, the efficacy of the 8-Cl-cAMP-Na+infusions were evaluated in advanced-stage human tumor xenograft models. Tumor fragments of approximately 14 mg were implanted subcutaneously in athymic CD-1 female mice and seven day intraperitoneal infusions of the cyclic nucleotide were initiated three weeks later when mean tumor weights had reached 300-400 mg. Tumor measurements were recorded on the initial day of treatment (staging day) and one day after treatment was completed (staging day +7), and were used to calculate changes in tumor weights.
DMBA-1, a variant of primary hormonedependent DMBA tumor,
hormoneindependent and transplantable.
(§2) 8Cl-cAMP and DBcAMP were given as a 20mg pellet consisting of 10 mg of […]

[3] = tested on: four leukemic cell lines (HL-60, K-562, myc-K562, Molt-4); assay: Growth inhibition of leukemic cell lines; format: cell-based, human; conditions: Homo sapiens; leukemic cell lines, range
[4] = tested on: p21 ras protein, MCF-7 cells; assay: Western blotting of p21 ras protein (Table 11, FIG. 7); format: cell-based, human; conditions: for p21 (Relative Level): 3 days, 8-Cl-cAMP 10 μM, 8-Cl-adenosine 5 μM, DBcAMP 500 μM, control = 1.0 O.D.; for p21 level: three days
Experimental: Western blotting of p21 protein was performed as described below. […] V is cell lysate from Ha-MuSV-transformed NIH3T3 clone 13-3B-4. M, marker proteins of known molecular weight.
Each lane contained 100 micrograms of protein for SDS-PAGE.
Cellular proteins present in cell extracts were separated by 12% SDS-PAGE and transferred to nitrocellulose sheets in transfer buffer (25 mM Tris, 192 mM glycine, 20% methanol, pH 7.4). Nitrocellulose sheets were washed and first incubated with 3% bovine serum albumin in NTE-NP40 (50 mM Tris-HCl, pH 7.5, 150 mM NaCl, 2 mM EDTA, 0.1% Nonidet P-40) for three hours at 37° C. and then sequentially incubated with medium containing p21 monoclonal antiserum Y13-259 directed against the Ha-MuSV-encoded p21 for sixteen hours at 4° C., rabbit anti-rat IgG for 2.5 hours in an ice water bath, and 5×10^5 cpm/ml ^125 I-protein A for one hour in an ice water bath. The nitrocellulose sheets were air dried and exposed to Kodak XAR film for 12-36 hours at -20° C. Comparison of the resulting autoradiograms with others in which normal rat serum was substituted for p21 monoclonal antibody permitted identification of p21. To provide a reference p21, cell lysates were prepared from NIH 3T3 clone 13-3B-4 that had been transfected with HaMuSV DNA.
The levels of p21 protein are expressed relative to the p21 level in the untreated control cells which is set equal to 1.0 O.D.

[5] = tested on: c-myc protein, Molt-4 leukemic cells; assay: Western blotting of c-myc protein (FIG. 9B); format: cell-based, human; conditions: three days; 8-Cl-cAMP 5 μM, DBcAMP 1 mM, 8-Cl-adenosine 5 μM
Experimental: The cells were grown in suspension culture in RPMI 1640 medium supplemented with 10% fetal bovine serum, penicillin (50 U/ml), streptomycin (500 μg/mL), 10 mM HEPES buffer, and extra glutamine. […] Surface antigen analysis of HL-60 cells was performed by flow cytometry using a panel of monoclonal antibodies reactive with either myeloid cells or monocytic cells. Terminal deoxynucleotidyl transferase (TdT) was assayed by an immunoperoxidase method using a TdT fluorescence kit. Western blotting of c-myc protein was performed using c-myc antibody 15206D11 (Scripps Clinic and Research Foundation, LaJolla, Calif.).
M, marker proteins of known molecular weight. […] The resulting supernatants were used as cell lysates. […] ND=nondetectable.

[6] = tested on: breast (MCF-7) and colon (LS-174T) cancer cell lines; assay: Growth inhibition of breast and colon cancer cells (Table 1); format: cell-based, human; conditions: for inhibition at 50 µM: Homo sapiens
Outline: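 MCF-7 and LS-174T cells seeded day −1, treated on day 0 and day 2; duplicate Coulter counts on days 3 and 4 after gentle trypsinization. Percent growth inhibition versus untreated controls from dose-response curves, averaged over ≥3 experiments.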

[7] = tested on: RI cAMP receptor protein, Molt-4 leukemic cells; assay: Photoaffinity labelling of RI cAMP receptor protein (FIG. 9A); format: cell-based, human; conditions: three days; 8-Cl-cAMP 5 μM, DBcAMP 1 mM, 8-Cl-adenosine 5 μM
[8] = tested on: RI and RII cAMP receptor proteins, LS-174T; assay: Photoaffinity labelling of cAMP receptor proteins (Table 10, FIG. 6); format: cell-based, human; conditions: 3 days, 8-Cl and N^6-benzyl 10 μM, dibutyryl 1 mM; for relative level of RI / relative level of RII: control RI = 1.0 O.D.
Experimental: (§3) Photoactivated incorporation of 8-N3 [^32 P] was performed as described below.
(§4) M is marker proteins of known molecular weight.
(§5) Each lane contained 50 micrograms protein for SDS-PAGE.
(§6) The incubations were carried out at 23° C. for 60 minutes in 96-well immunoplates. The reaction mixtures were then irradiated for 30 seconds at 254 nm, placing a Mineralite UVS-11 hand lamp directly onto the plate. The samples were mixed with 25 microliters of 3× sample buffer (3% SDS, 15% beta-mercaptoethanol, 30 mM Tris, 30% glycerol, 1% bromophenol blue saturated solution), boiled for 3 minutes, and centrifuged at 700 × g for five minutes. The samples containing 10-30 micrograms of protein were subjected to 0.05% SDS-12% PAGE. The gels were fixed, dried, and exposed to X-ray films overnight. The protein concentrations were determined by the method of Lowry et al., J. Biol. Chem. 193: 265-275, 1951, with bovine serum albumin as standard.
(§7) The levels of the receptor proteins are expressed relative to the RI level in the untreated control cells of MDA-MB-231 and LS-174T which are each set equal to 1.0 O.D.; the scale was expanded to differentiate the lower intensity bands.

[9] = tested on: RI and RII cAMP receptor proteins, MDA-MB-231; assay: as above; format: cell-based, human; conditions: 3 days, 8-Cl and N^6-benzyl 10 μM, dibutyryl 1 mM; for relative level of RI / relative level of RII: control RI = 1.0 O.D.
Experimental: as §3, §4, §5, §6, §7

[10] = tested on: NMU-2 mammary carcinoma; assay: Growth of metastatic mammary carcinoma, pellet (Table 5); format: in vivo, rat; conditions: for Change in mean tumor volume (cm^3) / Change in mean tumor volume (%): pellet with 10 mg analogue, day 7; for Change in mean tumor volume (%): none = 100
Experimental: as §1
NMU2, a variant of primary hormoneresponsive NMU tumor,
hormoneindependent, transplantable, and metastatic.
as §2

[11] = tested on: HL-60; assay: Growth inhibition of leukemic cells (Table 12); format: cell-based; conditions: Homo sapiens
[12] = tested on: K-562; assay: Growth inhibition of leukemic cells (Table 12); format: cell-based; conditions: Homo sapiens, K562
[13] = 72 h, 50 μM, day 3, average (range), read-out: % Growth Inhibition, Day 3
[14] = 96 h, 50 μM, day 4, average (range), read-out: % Growth Inhibition, Day 4

SMILES | Change in mean tumor volume (cm^3) [2] | Change in mean tumor volume (%) [2] | pIC50 [3] | p21 (Relative Level) [4] | p21 level [4] | c-myc protein level [5] | inhibition at 50 µM [6, 13] | inhibition at 50 µM [6, 14] | RI receptor protein level [7] | RII/RI [8] | relative level of RI [8] | relative level of RII [8] | RII/RI [9] | relative level of RI [9] | relative level of RII [9] | Change in mean tumor volume (cm^3) [10] | Change in mean tumor volume (%) [10] | pIC50 [11] | pIC50 [12] | further results
Nc1ncnc2c1nc(Cl)n2[C@@H]1O[C@@H]2COP(=O)(O)O[C@H]2[C@H]1O [8-Cl-cAMP, 8-chloro-adenosine 3': 5'-monophosphate] | 1.60 cm^3 | 61% | 4.70 to 5.30 | 0.1 ± 0.01 | markedly decreased level of p21 | marked reduction of c-myc protein level | 67% | 75% | markedly decreased | 1.25 | 0.20 ± 0.02 | 0.25 ± 0.02 | 0.60 | 0.25 ± 0.03 | 0.15 ± 0.01 | 1.10 cm^3 | 51% | 5.00 | 4.70 | pIC50 ([1]; read-out: Inhibition of Growth IC50, Molt-4): 5.30; inhibition of tumor growth ([2]; pellet, seven days): 40-50%; inhibition at 50 µM ([6]; 50 micromolar, read-out: growth inhibition): 40 to 75%; inhibition of tumor growth ([10]; pellet, seven days): 40-50%
CCCC(=O)Nc1ncnc2c1ncn2[C@@H]1O[C@@H]2COP(=O)(O)O[C@H]2[C@H]1OC(=O)CCC [DBcAMP, N^6, O^2' -dibutyryl-cAMP, reference compound] | 2.60 cm^3 | 9% | 3.00 to 3.30 | 0.8 ± 0.1 | slight reduction in p21 level | did not affect the c-myc protein level | 0% | 0% | without appreciable change | 0.19 | 0.80 ± 0.10 | 0.15 ± 0.02 | 0.07 | 1.0 ± 0.1 | 0.07 ± 0.01 | 2.15 cm^3 | 100% | 3.30 | 3.00 | pIC50 ([1]; read-out: Inhibition of Growth IC50, Molt-4 (symbol)): < 3.00; 50% growth inhibition ([1]; Molt-4): the 50% growth inhibition could not be obtained; tumor response ([2]; Table 5): completely resistant; growth inhibition ([6]; 50 micromolar): no growth inhibition; tumor response ([10]; Table 5): completely resistant
